This data set relates to CCRIS mutagenicity, Ames/micronucleus/aberration tests. Kind of data set: CCRIS mutagenicity studies.
Where [1] appears, read: Test System: AMES SALMONELLA TYPHIMURIUM, Strain/Indicator: TA98, Metabolic Activation: NONE, Method: PREINCUBATION
Setting [2] is: Test System: AMES SALMONELLA TYPHIMURIUM, Strain/Indicator: TA98, Metabolic Activation: NONE, Method: STANDARD PLATE.
The mark [3] stands for this setting: Test System: AMES SALMONELLA TYPHIMURIUM, Strain/Indicator: TA100, Metabolic Activation: NONE, Method: PREINCUBATION
Where [4] appears, read: Test System: AMES SALMONELLA TYPHIMURIUM, Strain/Indicator: TA100, Metabolic Activation: NONE, Method: STANDARD PLATE.
Setting [5] is: Test System: AMES SALMONELLA TYPHIMURIUM, Strain/Indicator: TA100, Metabolic Activation: RAT, LIVER, S-9, AROCLOR 1254, Method: STANDARD PLATE.
The mark [6] stands for this setting: Test System: AMES SALMONELLA TYPHIMURIUM, Strain/Indicator: TA1535, Metabolic Activation: NONE, Method: PREINCUBATION
Setting [7] is: Test System: AMES SALMONELLA TYPHIMURIUM, Strain/Indicator: TA1535, Metabolic Activation: NONE, Method: STANDARD PLATE.
The mark [8] stands for this setting: Test System: AMES SALMONELLA TYPHIMURIUM, Strain/Indicator: TA1535, Metabolic Activation: RAT, LIVER, S-9, AROCLOR 1254, Method: STANDARD PLATE.

The source made the active and inactive calls. No rule for the calls is given here.

In the case of `[O]=[Zr]`, the mutagenic call reads like this: (Test System: AMES SALMONELLA TYPHIMURIUM, Strain/Indicator: TA98, Metabolic Activation: HAMSTER, LIVER, S-9, AROCLOR 1254 (10%), Method: PREINCUBATION) “inactive; negative”; (Test System: AMES SALMONELLA TYPHIMURIUM, Strain/Indicator: TA98, Metabolic Activation: HAMSTER, LIVER, S-9, AROCLOR 1254, Method: STANDARD PLATE) “inactive; negative”; under setting [1], “inactive; negative”; under setting [2], “inactive; negative”; (Test System: AMES SALMONELLA TYPHIMURIUM, Strain/Indicator: TA98, Metabolic Activation: RAT, LIVER, S-9, AROCLOR 1254 (10%), Method: PREINCUBATION) “inactive; negative”; (Test System: AMES SALMONELLA TYPHIMURIUM, Strain/Indicator: TA98, Metabolic Activation: RAT, LIVER, S-9, AROCLOR 1254, Method: STANDARD PLATE) “inactive; negative”. Besides, the mutagenic call runs as follows: (Test System: AMES SALMONELLA TYPHIMURIUM, Strain/Indicator: TA100, Metabolic Activation: HAMSTER, LIVER, S-9, AROCLOR 1254 (10%), Method: PREINCUBATION) “inactive; negative”; (Test System: AMES SALMONELLA TYPHIMURIUM, Strain/Indicator: TA100, Metabolic Activation: HAMSTER, LIVER, S-9, AROCLOR 1254, Method: STANDARD PLATE) “inactive; negative”; under setting [3], “inactive; negative”; under setting [4], “inactive; negative”; (Test System: AMES SALMONELLA TYPHIMURIUM, Strain/Indicator: TA100, Metabolic Activation: RAT, LIVER, S-9, AROCLOR 1254 (10%), Method: PREINCUBATION) “inactive; negative”; under setting [5], “inactive; negative”. In addition, the mutagenic call reads like this: (Test System: AMES SALMONELLA TYPHIMURIUM, Strain/Indicator: TA1535, Metabolic Activation: HAMSTER, LIVER, S-9, AROCLOR 1254 (10%), Method: PREINCUBATION) “inactive; negative”; (Test System: AMES SALMONELLA TYPHIMURIUM, Strain/Indicator: TA1535, Metabolic Activation: HAMSTER, LIVER, S-9, AROCLOR 1254, Method: STANDARD PLATE) “inactive; negative”; under setting [6], “inactive; negative”; under setting [7], “inactive; negative”; (Test System: AMES SALMONELLA TYPHIMURIUM, Strain/Indicator: TA1535, Metabolic Activation: RAT, LIVER, S-9, AROCLOR 1254 (10%), Method: PREINCUBATION) “inactive; negative”; under setting [8], “inactive; negative”. Moreover, the mutagenic call (Test System: AMES SALMONELLA TYPHIMURIUM, Strain/Indicator: TA1537, Metabolic Activation: HAMSTER, LIVER, S-9, AROCLOR 1254 (10%), Method: PREINCUBATION) is “inactive; negative”; the mutagenic call (Test System: AMES SALMONELLA TYPHIMURIUM, Strain/Indicator: TA1537, Metabolic Activation: HAMSTER, LIVER, S-9, AROCLOR 1254, Method: STANDARD PLATE) was “inactive; negative”; the mutagenic call (Test System: AMES SALMONELLA TYPHIMURIUM, Strain/Indicator: TA1537, Metabolic Activation: NONE, Method: PREINCUBATION) was “inactive; negative”; the mutagenic call (Test System: AMES SALMONELLA TYPHIMURIUM, Strain/Indicator: TA1537, Metabolic Activation: NONE, Method: STANDARD PLATE) is “inactive; negative”; the mutagenic call (Test System: AMES SALMONELLA TYPHIMURIUM, Strain/Indicator: TA1537, Metabolic Activation: RAT, LIVER, S-9, AROCLOR 1254 (10%), Method: PREINCUBATION) is “inactive; negative”; the mutagenic call (Test System: AMES SALMONELLA TYPHIMURIUM, Strain/Indicator: TA1537, Metabolic Activation: RAT, LIVER, S-9, AROCLOR 1254, Method: STANDARD PLATE) is “inactive; negative”. In addition, the mutagenic call was “inactive; negative” (Test System: AMES SALMONELLA TYPHIMURIUM, Strain/Indicator: TA1538, Metabolic Activation: HAMSTER, LIVER, S-9, AROCLOR 1254, Method: STANDARD PLATE); “inactive; negative” (Test System: AMES SALMONELLA TYPHIMURIUM, Strain/Indicator: TA1538, Metabolic Activation: NONE, Method: STANDARD PLATE); “inactive; negative” (Test System: AMES SALMONELLA TYPHIMURIUM, Strain/Indicator: TA1538, Metabolic Activation: RAT, LIVER, S-9, AROCLOR 1254, Method: STANDARD PLATE); “inactive; negative. reevaluation of results: negative” (Test System: MOUSE LYMPHOMA, Strain/Indicator: L5178Y (TK+/TK-), Metabolic Activation: NONE, Method: SUSPENSION/PLATE); “inactive; negative. reevaluation of results: negative” (Test System: MOUSE LYMPHOMA, Strain/Indicator: L5178Y (TK+/TK-), Metabolic Activation: RAT, LIVER, S-9, AROCLOR 1254, Method: SUSPENSION/PLATE).

`CN1CCN(c2ccc3nc(-c4ccc5nc(-c6ccc(N(CCCl)CCCl)cc6)[nH]c5c4)[nH]c3c2)CC1`: the mutagenic call runs as follows: under setting [2], “inactive; negative”; under setting [4], “inactive; negative”; (Test System: AMES SALMONELLA TYPHIMURIUM, Strain/Indicator: TA102, Metabolic Activation: NONE, Method: STANDARD PLATE) “inactive; negative”.

In the case of `CCCCCCCCCCCCCCCCN`, the mutagenic call runs as follows: (Test System: AMES SALMONELLA TYPHIMURIUM, Strain/Indicator: TA97, Metabolic Activation: HAMSTER, LIVER, S-9, AROCLOR 1254 (10 OR 30%), Method: PREINCUBATION) “inactive; negative”; (Test System: AMES SALMONELLA TYPHIMURIUM, Strain/Indicator: TA97, Metabolic Activation: NONE, Method: PREINCUBATION) “inactive; negative”; (Test System: AMES SALMONELLA TYPHIMURIUM, Strain/Indicator: TA97, Metabolic Activation: RAT, LIVER, S-9, AROCLOR 1254 (10 OR 30%), Method: PREINCUBATION) “inactive; negative”; (Test System: AMES SALMONELLA TYPHIMURIUM, Strain/Indicator: TA98, Metabolic Activation: HAMSTER, LIVER, S-9, AROCLOR 1254 (10 OR 30%), Method: PREINCUBATION) “inactive; negative”; under setting [1], “inactive; negative”; (Test System: AMES SALMONELLA TYPHIMURIUM, Strain/Indicator: TA98, Metabolic Activation: RAT, LIVER, S-9, AROCLOR 1254 (10 OR 30%), Method: PREINCUBATION) “inactive; negative”. The mutagenic call by setting is: (Test System: AMES SALMONELLA TYPHIMURIUM, Strain/Indicator: TA100, Metabolic Activation: HAMSTER, LIVER, S-9, AROCLOR 1254 (10 OR 30%), Method: PREINCUBATION) “inactive; negative”; under setting [3], “inactive; negative”; (Test System: AMES SALMONELLA TYPHIMURIUM, Strain/Indicator: TA100, Metabolic Activation: RAT, LIVER, S-9, AROCLOR 1254 (10 OR 30%), Method: PREINCUBATION) “inactive; negative”; (Test System: AMES SALMONELLA TYPHIMURIUM, Strain/Indicator: TA1535, Metabolic Activation: HAMSTER, LIVER, S-9, AROCLOR 1254 (10 OR 30%), Method: PREINCUBATION) “inactive; negative”; under setting [6], “inactive; negative”; (Test System: AMES SALMONELLA TYPHIMURIUM, Strain/Indicator: TA1535, Metabolic Activation: RAT, LIVER, S-9, AROCLOR 1254 (10 OR 30%), Method: PREINCUBATION) “inactive; negative”.

Regarding `O=C1OC(=C(Cl)Cl)C=C1Cl`, the mutagenic call under setting [4] is “active; positive”.

In the case of `C=C(C)C1CCC2(C)OC2C1` (stereo not given), the mutagenic call reads like this: under setting [4], “inactive; negative”; under setting [5], “inactive; negative”; under setting [7], “inactive; negative”; under setting [8], “inactive; negative”; (Test System: UDS RAT HEPATOCYTES, Strain/Indicator: THY INCORP, Metabolic Activation: NONE) “inactive; negative”.
